In brackets after ≈: the same amount, converted by molar mass.
What was measured:
[1] = test system: Sporothrix schenckii; assay: Antifungal activity against Sporothrix schenckii clinical isolate after 72 to 96 hrs by standard broth microdilution method; format: functional
[2] = test system: Aspergillus fumigatus; assay: Antifungal activity against Aspergillus fumigatus clinical isolate after 72 to 96 hrs by standard broth microdilution method; format: functional
[3] = test system: Pseudomonas aeruginosa; assay: Antimicrobial activity against Pseudomonas aeruginosa ATCC BAA-427 after 24 hrs by standard broth microdilution method; format: functional; details: ATCC BAA-427, 24 h
[4] = test system: Plasmodium falciparum; assay: Antiplasmodial activity against chloroquine-sensitive Plasmodium falciparum 3D7 infected after 72 hrs by Malaria SYBR Green I-staining based fluorescence assay; format: functional, organism-based; details: 3D7, 72 h
[5] = test system: Escherichia coli; assay: Antimicrobial activity against Escherichia coli ATCC 9637 after 24 hrs by standard broth microdilution method; format: functional; details: ATCC 9637, 24 h
[6] = test system: Klebsiella pneumoniae; assay: Antimicrobial activity against Klebsiella pneumoniae ATCC 27736 after 24 hrs by standard broth microdilution method; format: functional; details: ATCC 27736, 24 h
[7] = test system: Plasmodium falciparum; assay: Antiplasmodial activity against chloroquine-resistant Plasmodium falciparum K1 infected after 72 hrs by Malaria SYBR Green I-staining based fluorescence assay; format: functional, organism-based; details: K1, 72 h
[8] = test system: Trichophyton mentagrophytes; assay: Antifungal activity against Trichophyton mentagrophytes clinical isolate after 72 to 96 hrs by standard broth microdilution method; format: functional
[9] = test system: Candida albicans; assay: Antifungal activity against Candida albicans clinical isolate after 24 to 48 hrs by standard broth microdilution method; format: functional
[10] = test system: Staphylococcus aureus; assay: Antimicrobial activity against Staphylococcus aureus ATCC 25923 after 24 hrs by standard broth microdilution method; format: functional; details: ATCC 25923, 24 h
[11] = test system: Cryptococcus neoformans; assay: Antifungal activity against Cryptococcus neoformans clinical isolate after 24 to 48 hrs by standard broth microdilution method; format: functional
[12] = test system: Candida parapsilosis; assay: Antifungal activity against Candida parapsilosis ATCC […] after 72 to 96 hrs by standard broth microdilution method; format: functional; details: Lodderomyces parapsilosis
[13] = Selectivity index, ratio of IC50 for african green monkey Vero cells to IC50 for chloroquine-sensitive Plasmodium falciparum 3D7; format: toxicity, cell-based; details: read-out: Ratio IC50

SMILES | MIC [1] [µg/mL] | MIC [2] [µg/mL] | MIC [3] [µg/mL] | IC50 [4] [nM] | MIC [5] [µg/mL] | MIC [6] [µg/mL] | IC50 [7] [nM] | MIC [8] [µg/mL] | MIC [9] [µg/mL] | MIC [10] [µg/mL] | MIC [11] [µg/mL] | MIC [12] [µg/mL] | selectivity ratio [13]
Clc1ccc(Cl)c(Oc2ccc(N/C(=N/c3ccccc3)NCCCCNc3ccnc4cc(Cl)ccc34)cc2)c1 | 25 (≈ 41.3 µM) | 25 (≈ 41.3 µM) | > 50 | 307 | 12.5 (≈ 20.7 µM) | 25 (≈ 41.3 µM) | > 826 | 25 (≈ 41.3 µM) | 12.5 (≈ 20.7 µM) | 12.5 (≈ 20.7 µM) | 25 (≈ 41.3 µM) | 12.5 (≈ 20.7 µM) | 29.9
Clc1cccc(/N=C(\NCCCNc2ccnc3cc(Cl)ccc23)Nc2ccc(Oc3cc(Cl)ccc3Cl)cc2)c1 | 3.12 (≈ 4.99 µM) | 12.5 (≈ 20 µM) | > 50 | 76.2 | 6.25 (≈ 9.99 µM) | > 50 | > 800 | 6.25 (≈ 9.99 µM) | 3.12 (≈ 4.99 µM) | 12.5 (≈ 20 µM) | 6.25 (≈ 9.99 µM) | 25 (≈ 40 µM) | 44.5
COC(=O)/C(C)=C/c1ccc(Oc2ccccc2N/C(=N/c2cccc(Cl)c2)NCCCCNc2ccnc3cc(Cl)ccc23)cc1 | > 50 | > 50 | > 50 | 31.2 | 12.5 (≈ 18.7 µM) | > 50 | > 800 | > 50 | 50 (≈ 74.8 µM) | 3.12 (≈ 4.67 µM) | > 50 | > 50 | 80.7
COC(=O)/C(C)=C/c1ccc(Oc2ccc(N/C(=N/c3cccc(Cl)c3)NCCNc3ccnc4cc(Cl)ccc34)cc2)cc1 | 25 (≈ 39 µM) | > 50 | 50 (≈ 78.1 µM) | 48.9 | 12.5 (≈ 19.5 µM) | 12.5 (≈ 19.5 µM) | 123 | 25 (≈ 39 µM) | 50 (≈ 78.1 µM) | 6.25 (≈ 9.76 µM) | 50 (≈ 78.1 µM) | 50 (≈ 78.1 µM) | 71.7
COc1ccc(Oc2ccc(N/C(=N/c3cccc(Cl)c3)NCCCCNc3ccnc4cc(Cl)ccc34)cc2)cc1 | 6.25 (≈ 10.4 µM) | 25 (≈ 41.6 µM) | > 50 | 75.7 | 25 (≈ 41.6 µM) | 25 (≈ 41.6 µM) | 147 | 6.25 (≈ 10.4 µM) | 6.25 (≈ 10.4 µM) | 6.25 (≈ 10.4 µM) | 12.5 (≈ 20.8 µM) | 6.25 (≈ 10.4 µM) | 61.2
Clc1cccc(/N=C(\NCCNc2ccnc3cc(Cl)ccc23)Nc2ccc(Oc3cc(Cl)ccc3Cl)cc2)c1 | 3.12 (≈ 5.1 µM) | 50 (≈ 81.8 µM) | > 50 | 62.8 | 6.25 (≈ 10.2 µM) | > 50 | > 817 | 6.25 (≈ 10.2 µM) | 3.12 (≈ 5.1 µM) | 12.5 (≈ 20.4 µM) | 12.5 (≈ 20.4 µM) | 25 (≈ 40.9 µM) | 53.2
Clc1ccc(Cl)c(Oc2ccc(N/C(=N/c3ccccc3)NCCCNc3ccnc4cc(Cl)ccc34)cc2)c1 | 3.12 (≈ 5.28 µM) | 6.25 (≈ 10.6 µM) | > 50 | 23.1 | 3.12 (≈ 5.28 µM) | 25 (≈ 42.3 µM) | > 846 | 6.25 (≈ 10.6 µM) | 12.5 (≈ 21.2 µM) | 12.5 (≈ 21.2 µM) | 6.25 (≈ 10.6 µM) | 6.25 (≈ 10.6 µM) | 164
Clc1ccc(/N=C(\NCCCCNc2ccnc3cc(Cl)ccc23)Nc2ccc(Oc3cc(Cl)ccc3Cl)cc2)cc1 | 6.25 (≈ 9.77 µM) | 25 (≈ 39.1 µM) | > 50 | 29 | 6.25 (≈ 9.77 µM) | 12.5 (≈ 19.5 µM) | 209 | 12.5 (≈ 19.5 µM) | 12.5 (≈ 19.5 µM) | 6.25 (≈ 9.77 µM) | 12.5 (≈ 19.5 µM) | 12.5 (≈ 19.5 µM) | 756
COc1ccc(Oc2ccc(N/C(=N/c3ccc(Cl)cc3)NCCCNc3ccnc4cc(Cl)ccc34)cc2)cc1 | 25 (≈ 42.6 µM) | 50 (≈ 85.2 µM) | > 50 | 204 | 12.5 (≈ 21.3 µM) | 50 (≈ 85.2 µM) | > 800 | 25 (≈ 42.6 µM) | 50 (≈ 85.2 µM) | 12.5 (≈ 21.3 µM) | 50 (≈ 85.2 µM) | 25 (≈ 42.6 µM) | 82.1
COC(=O)/C(C)=C/c1ccc(Oc2ccc(N/C(=N/c3ccc(Cl)cc3)NCCNc3ccnc4cc(Cl)ccc34)cc2)cc1 | 6.25 (≈ 9.76 µM) | 25 (≈ 39 µM) | > 50 | 43.1 | 12.5 (≈ 19.5 µM) | 50 (≈ 78.1 µM) | > 800 | 12.5 (≈ 19.5 µM) | 6.25 (≈ 9.76 µM) | 6.25 (≈ 9.76 µM) | 6.25 (≈ 9.76 µM) | 25 (≈ 39 µM) | 69.2
